Results from patent publication US8008251B2, “Macrocyclic inhibitors of hepatitis C virus” (Tibotec Pharmaceuticals Ltd., priority 2005, dated 2011).
Read-outs that look alike come from different tables or passages of the source.

Assays:
[1] = rcm bond, Hoveyda-Grubbs 1st generation catalyst, 1,2-dichloroethane, 83.0 °C
[2] = biological target: T1, full-length hepatitis C NS3 protease enzyme with NS4A cofactor (HCV NS3/4A protease) (Hepatitis C virus genotype 1a, UniProt P27958); assay: Enzymatic inhibition assay of HCV NS3/4A protease; type: biochemical
T1 construct: full-length hepatitis C NS3 protease enzyme
Method: [Landro, Biochemistry, 1997, 36(31): 9340-9348]. […] The solutions were stored at −20° C. between measurements.
[Liu, 1999 Analytical Biochemistry 267 331-335].

[3] = Oral pharmacokinetics in dog with and without ritonavir boosting; type: in vivo, male Beagle dogs; conditions: single oral 10 mg/kg, boosted with ritonavir (Norvir 100 mg capsule) vs non-boosted
Method: Oral pharmacokinetics of Compound nr. 9 in male Beagle dogs after a single dose at 10 mg/kg, using a formulation in 50% PEG400/water and the influence of “boosting” with 10 mg/kg ritonavir were investigated.
Six male Beagle dogs (body weight 8-10 kg) were randomly divided into 2 groups of 3 animals (boosted and non-boosted). No untreated or vehicle-treated control animals were included. […] Drinking water remained available throughout the experiment.
Dogs from the non-boosted group received a single oral 10 mg/kg dose of Compound nr. 9, formulated as a 5 mg/ml 50% PEG400/water. Dogs from the boosted group received a single soft capsule of Norvir® (ritonavir, 100 mg/capsule), about 30 minutes before single oral dosing with 10 mg/kg of Compound nr. 9. The drug formulations were administered by oral gavage, using a gastric tube.
A 3 ml blood sample was collected at 0.5 h 1 h, 2 h, 4 h, 6 h, 8 h and 24 hours after dosing of Compound nr. 9. Plasma concentrations were determined using HPLC-MS. Results are shown in the table 5 below, expressed as fold change in pharmacokinetic parameter of the boosted group as compared to the non-boosted group.

[4] = In vitro metabolic blocking by ritonavir in human liver microsomes; type: in vitro ADME; conditions: human liver microsomes 1 mg/ml
Method: Different HCV NS3/4a protease inhibitors were tested in a metabolic blocking experiment using 3 μM test compound together with 10 μM ritonavir acting as booster. Test compounds and ritonavir were added to human liver microsomes (protein concentration 1 mg/ml) suspended in potassium phosphate buffer (pH=7.4), to get final reaction mixture concentrations of 3 μM test compound and 10 μM ritonavir. In the non-boosted parallel reactions, ritonavir was not added. Boiled human liver microsomes were used for blank experiments. After addition (in a 1:3 ratio) of a cofactor mixture consisting of β-nicotinamide adenine dinucleotide phosphate (β-NADP, 0.5 mg/ml, 653.2 μM), D-Glucose-6-phosphate (2 mg/ml, 7.1 mM), Glucose-6-phosphate dehydrogenase (1.5 U/ml) in 2% NaHCO3, the reaction mixture was incubated at 37° C. for 30 or 120 minutes after which the reaction was stopped by increasing the temperature to 95° C. Test compound concentrations were determined using HPLC-MS.
Values are percentages of test compound detected after the indicated incubation times as compared to the initial test compound concentration. Each value is the mean of the results of two independent experiments.

in vitro = conditions: human, Caco-2
[5] = system: HCV replicons (NS3-NS5B regions of HCV type 1b) in Huh-7 luc/neo cells; assay: HCV replicon assay (Huh-Luc, luciferase readout); type: cell-based; conditions: Hepatitis C virus, Huh-7, 72 h, three days incubation, luciferase activity
Method: The in vitro antiviral activity against HCV of the compounds of formula (I) was tested in a cellular HCV replicon system based on Lohmann et al. (1999) Science 285:110-113, with the further modifications described by Krieger et al. (2001), Journal of Virology 75: 4614-4624, which is further exemplified in the examples section. This model, while not a complete infection model for HCV, is widely accepted as the most robust and efficient model of autonomous HCV RNA replication currently available. […] It will be appreciated that it is important to distinguish between compounds that specifically interfere with HCV functions from those that exert cytotoxic or cytostatic effects in the HCV replicon model, and as a consequence cause a decrease in HCV RNA or linked reporter enzyme concentration. Assays are known in the field for the evaluation of cellular cytotoxicity based for example on the activity of mitochondrial enzymes using fluorogenic redox dyes such as resazurin. Furthermore, cellular counter screens exist for the evaluation of non-selective inhibition of linked reporter gene activity, such as firefly luciferase. Appropriate cell types can be equipped by stable transfection with a luciferase reporter gene whose expression is dependent on a constitutively active gene promoter, and such cells can be used as a counter-screen to eliminate non-selective inhibitors.
The compounds of formula (I) were examined for activity in the inhibition of HCV RNA replication in a cellular assay. […] The cellular assay was based on a bicistronic expression construct, as described by Lohmann et al. (1999) Science vol. 285 pp. 110-113 with modifications described by Krieger et al. (2001) Journal of Virology 75: 4614-4624, in a multi-target screening strategy. In essence, the method was as follows.
The assay utilized the stably transfected cell line Huh-7 luc/neo (hereafter referred to as Huh-Luc). This cell line harbors an RNA encoding a bicistronic expression construct comprising the wild type NS3-NS5B regions of HCV type 1b translated from an Internal Ribosome Entry Site (IRES) from encephalomyocarditis virus (EMCV), preceded by a reporter portion (FfL-luciferase), and a selectable marker portion (neo^R, neomycine phosphotransferase). […]
The replicon cells were plated in 384 well plates in the presence of the test and control compounds which were added in various concentrations. Following an incubation of three days, HCV replication was measured by assaying luciferase activity (using standard luciferase assay substrates and reagents and a Perkin Elmer ViewLux™ ultraHTS microplate imager). […] The inhibitory activity of the compound on luciferase activity was monitored on the Huh-Luc cells, enabling a dose-response curve for each test compound.

[6] = reference compounds for permeability assay; cited from earlier work

T1 sequence (P27958 1027-1657, other chains not shown): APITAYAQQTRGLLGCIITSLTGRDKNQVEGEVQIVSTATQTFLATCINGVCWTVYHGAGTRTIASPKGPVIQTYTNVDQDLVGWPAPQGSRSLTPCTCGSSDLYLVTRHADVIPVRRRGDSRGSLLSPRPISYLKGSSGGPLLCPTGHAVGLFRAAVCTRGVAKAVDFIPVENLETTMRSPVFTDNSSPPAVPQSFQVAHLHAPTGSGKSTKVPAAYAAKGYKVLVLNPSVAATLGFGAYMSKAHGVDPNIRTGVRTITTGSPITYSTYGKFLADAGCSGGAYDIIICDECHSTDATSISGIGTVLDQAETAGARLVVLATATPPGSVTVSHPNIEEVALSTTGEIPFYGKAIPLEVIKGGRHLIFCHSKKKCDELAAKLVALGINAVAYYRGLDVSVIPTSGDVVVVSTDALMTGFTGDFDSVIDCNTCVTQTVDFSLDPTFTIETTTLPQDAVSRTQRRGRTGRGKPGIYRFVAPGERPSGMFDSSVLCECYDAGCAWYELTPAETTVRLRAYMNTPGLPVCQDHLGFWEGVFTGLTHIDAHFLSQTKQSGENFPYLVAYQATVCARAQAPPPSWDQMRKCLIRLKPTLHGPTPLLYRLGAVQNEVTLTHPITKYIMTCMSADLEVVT

| SMILES | Ki [2] [nM] | Papp at 120 min, 10 μM (in vitro) [×10⁻⁶ cm/s] | EC50 [5] [µM] | further results |
| --- | --- | --- | --- | --- |
| CCOC(=O)C12CC1C=CCCCCCNC(=O)N1CC(Oc3cc(-c4nc(C(C)C)cs4)nc4cc(OC)ccc34)CC1C(=O)N2 (stereo not shown) | – | – | – | ring closure, yield of all isomers ([1]; from C=CCCCCCNC(=O)N1CC(Oc2cc(-c3nc(C(C)C)cs3)nc3cc(OC)ccc23)CC1C(=O)NC1(C(=O)OCC)CC1C=C, 2.2 mM, 16.0 h): 57% |
| CCOC(=O)C12CC1C=CCCCCN(C)C(=O)N1CC(OC(=O)c3ccc([N+](=O)[O-])cc3)CC1C(=O)N2 (stereo not shown) | – | – | – | ring closure, yield of all isomers ([1]; from C=CCCCCN(C)C(=O)N1CC(OC(=O)c2ccc([N+](=O)[O-])cc2)CC1C(=O)NC1(C(=O)OCC)CC1C=C, 1.93 mM): 74% |
| CCOC(=O)C12CC1C=CCCCCN(C)C(=O)N1CC(Oc3cc(-c4nc(C(C)C)cs4)nc4cc(OC)ccc34)CC1C(=O)N2 (stereo not shown) | – | – | – | ring closure, yield of all isomers ([1]; from C=CCCCCN(C)C(=O)N1CC(Oc2cc(-c3nc(C(C)C)cs3)nc3cc(OC)ccc23)CC1C(=O)NC1(C(=O)OCC)CC1C=C, 1.45 mM): 74% |
| COc1ccc2c(O[C@@H]3C[C@H]4C(=O)N[C@]5(C(=O)NS(=O)(=O)C6CC6)C[C@H]5/C=C\CCCCCNC(=O)N4C3)cc(-c3nc(C(C)C)cs3)nc2c1 [Compound 9, N-[18-[2-(4-isopropylthiazol-2-yl)-7-methoxyquinolin-4-yl-oxy]-2,15-dioxo-3,14,16-triazatricyclo[14.3.0.0^4,6]nonadec-7-ene-4-carbonyl]-(cyclopropyl)sulfonamide] | 0.12 | 11 | 0.007 | Fold increase in AUC when boosted with ritonavir [3]: 55 fold; Fold increase in Cmax when boosted with ritonavir [3]: 31 fold; % Detected Compound, 30′, ritonavir ([4]; 3 μM test compound + 10 μM ritonavir, 30 min): 88%; % Detected Compound, 120′, ritonavir ([4]; 3 μM test compound + 10 μM ritonavir, 120 min): 100%; % Detected Compound, 30′, No Booster ([4]; 3 μM test compound, 30 min, no ritonavir): 44%; % Detected Compound, 120′, No Booster ([4]; 3 μM test compound, 120 min, no ritonavir): 0% |
| COc1ccc2c(O[C@@H]3C[C@H]4C(=O)N[C@]5(C(=O)NS(=O)(=O)C6CC6)C[C@H]5/C=C\CCCCNC(=O)N4C3)cc(-c3nc(C(C)C)cs3)nc2c1 [Compound 26, Cyclopropanesulphonic acid {17-[2-(4-isopropylthiazol-2-yl)-7-methoxyquinolin-4-yloxy]-2,14-dioxo-3,13,15-triaza-tricyclo[13.3.0.0^4,6]-octadec-7-ene-4-carbonyl}-amide] | 0.4 | 3.6 | 0.0064 | – |
| COc1ccc2c(O[C@@H]3C[C@H]4C(=O)N[C@]5(C(=O)NS(=O)(=O)C6(C)CC6)C[C@H]5/C=C\CCCCNC(=O)N4C3)cc(-c3nc(C(C)C)cs3)nc2c1 [Compound 28, 1-Methyl-cyclopropanesulphonic acid [17-[2-(4-isopropyl-thiazol-2-yl)-7-methoxyquinolin-4-yloxy]-2,14-dioxo-3,13,15-triaza-tricyclo-[13.3.0.0^4,6]octadec-7-ene-4-carbonyl]-amide] | 0.3 | 8.6 | 0.0023 | – |
| COc1ccc2c(O[C@@H]3C[C@H]4C(=O)N[C@]5(C(=O)NS(=O)(=O)C6(C)CC6)C[C@H]5/C=C\CCCCCNC(=O)N4C3)cc(-c3nc(C(C)C)cs3)nc2c1 [Compound 33, 1-Methyl-cyclopropanesulphonic acid [18-[2-(4-isopropyl-thiazol-2-yl)-7-methoxyquinolin-4-yloxy]-2,15-dioxo-3,14,16-triaza-tricyclo-[14.3.0.0^4,6]nonadec-7-ene-4-carbonyl]-amide] | 0.3 | 31 | 0.0036 | – |
| N[C@@H](Cc1ccccc1)C(=O)O [L-Phenylalanine] | – | – | – | % absorption in man [6]: 100% |
